Key:
Human δ-opioid (DOP) = molecular target: T1, Human δ-opioid (DOP) (Homo sapiens, UniProt P41143); assay: Radioligand binding, human δ-opioid (DOP) membranes, FlashPlate, [3H]-Bremazocine; details: compound at 10 μM, [3H]-Bremazocine
T1 construct: purchased Perkin Elmer Biosignal
In short: (§1)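 Cloned human receptor membranes were coated onto FlashPlate wells and incubated with radioligand and compound (added from a 0.5 mM DMSO daughter plate) for 1 hour at room temperature in the dark. Scintillation counting gave percent inhibition, with DMSO defining total and reference ligand defining non-specific binding.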

Human κ-Opioid (KOP) = molecular target: T2, Human κ-Opioid (KOP) (Homo sapiens, UniProt P41145); assay: Radioligand binding, human κ-opioid (KOP) membranes, filtration, [3H]-Diprenorphine; details: compound at 10 μM, [3H]-Diprenorphine
T2 construct: purchased Perkin Elmer Biosignal
In short: (§2)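 Filtration binding on cloned human receptor membranes (1 Unit/well), [125I]-Substance P for NK1 and [3H]-Diprenorphine for KOP, 1 h at room temperature. Filters PEI-presoaked, washed with cold 50 mM Tris-HCl pH 7.4, counted by scintillation; percent inhibition calculated, reference ligand defining non-specific binding.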

Human Melanocortin (MC3) = molecular target: T3, Human Melanocortin (MC3) (Homo sapiens, UniProt P41968); assay: Radioligand binding, human melanocortin MC3 membranes, FlashPlate, [125I]-NDP-αMSH; details: compound at 10 μM, [125I]-NDP-αMSH
T3 construct: purchased Perkin Elmer Biosignal
In short: as §1

Human Melanocortin (MC4) = molecular target: T4, Human Melanocortin (MC4) (Homo sapiens, UniProt P32245); assay: Radioligand binding, human melanocortin MC4 membranes, FlashPlate, [125I]-NDP-αMSH; details: compound at 10 μM, [125I]-NDP-αMSH
T4 construct: purchased Perkin Elmer Biosignal
In short: as §1

Human melanocortin (MC5) = molecular target: T5, Human melanocortin (MC5) (Homo sapiens, UniProt P33032); assay: Radioligand binding, human melanocortin MC5 membranes, FlashPlate, [125I]-NDP-αMSH; details: compound at 10 μM, [125I]-NDP-αMSH
T5 construct: purchased Perkin Elmer Biosignal
In short: as §1

[1] = molecular target: T6, Human melanin-concentrating hormone (MCH1) (Homo sapiens, UniProt Q99705); assay: Radioligand binding, human melanin-concentrating hormone MCH1 membranes, FlashPlate, [125I]-S36057; details: compound at 10 μM; for A6: inhibition of radioligand binding, human melanin-concentrating hormone (MCH1): [125I]-S36057
T6 construct: purchased Perkin Elmer Biosignal
In short: as §1

Human μ-opioid (MOP) = molecular target: T7, Human μ-opioid (MOP) (Homo sapiens, UniProt P35372); assay: Radioligand binding, human μ-opioid (MOP) membranes, FlashPlate, [3H]-Naloxone; details: compound at 10 μM, [3H]-Naloxone
T7 construct: purchased Perkin Elmer Biosignal
In short: as §1

Human neurokinin (NK1) = molecular target: T8, Human neurokinin (NK1) (Homo sapiens, UniProt P25103); assay: Radioligand binding, human neurokinin NK1 membranes, filtration, [125I]-Substance P; details: compound at 10 μM, [125I]-Substance P
T8 construct: purchased Perkin Elmer Biosignal
In short: as §2

[2] = molecular target: T9, Human neuropeptide Y (NPY-Y1) (Homo sapiens, UniProt P25929); assay: Radioligand binding, human neuropeptide Y NPY-Y1 membranes, FlashPlate, [125I]-PYY; details: compound at 10 μM, [125I]-PYY
T9 construct: purchased Perkin Elmer Biosignal
T9 sequence (P25929 1-384): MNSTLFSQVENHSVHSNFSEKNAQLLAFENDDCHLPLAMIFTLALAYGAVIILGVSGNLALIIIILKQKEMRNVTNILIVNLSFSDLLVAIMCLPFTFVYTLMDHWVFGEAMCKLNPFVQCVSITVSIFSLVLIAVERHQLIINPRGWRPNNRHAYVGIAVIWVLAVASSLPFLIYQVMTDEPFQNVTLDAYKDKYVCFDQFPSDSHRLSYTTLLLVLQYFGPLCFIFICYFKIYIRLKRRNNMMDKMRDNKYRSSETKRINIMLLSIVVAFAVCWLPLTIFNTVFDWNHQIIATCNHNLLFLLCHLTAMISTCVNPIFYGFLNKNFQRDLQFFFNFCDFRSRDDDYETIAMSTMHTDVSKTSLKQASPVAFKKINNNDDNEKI
In short: as §1

Human opioid (ORL1) = molecular target: T10, Human opioid (ORL1) (Homo sapiens, UniProt P41146); assay: Radioligand binding, human opioid ORL1 membranes, FlashPlate, [125I]-Nociceptin; details: compound at 10 μM, [125I]-Nociceptin
T10 construct: purchased Perkin Elmer Biosignal
In short: as §1

Mouse urotensin (mUR2) = molecular target: T11, Mouse urotensin (mUR2) (Mus musculus, UniProt Q8VIH9); assay: Radioligand binding, mouse urotensin mUR2 membranes, FlashPlate, [125I]-Urotensin II; details: compound at 10 μM, [125I]-Urotensin II
T11 construct: purchased Perkin Elmer Biosignal
T11 sequence (Q8VIH9 1-385): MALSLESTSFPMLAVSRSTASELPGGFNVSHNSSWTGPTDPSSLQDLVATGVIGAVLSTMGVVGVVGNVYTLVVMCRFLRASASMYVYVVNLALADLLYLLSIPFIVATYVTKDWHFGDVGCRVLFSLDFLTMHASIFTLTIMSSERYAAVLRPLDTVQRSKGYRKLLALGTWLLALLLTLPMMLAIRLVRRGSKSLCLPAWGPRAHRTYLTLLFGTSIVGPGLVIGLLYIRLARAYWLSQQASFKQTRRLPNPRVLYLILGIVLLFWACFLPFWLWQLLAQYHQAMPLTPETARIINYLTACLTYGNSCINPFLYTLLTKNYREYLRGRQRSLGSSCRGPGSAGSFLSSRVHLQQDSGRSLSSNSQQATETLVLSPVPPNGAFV
In short: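 Cloned mouse urotensin (mUR2) receptor membranes from Perkin Elmer Biosignal were immobilized in FlashPlate microplates using a proprietary coating. Each well got 19.5 μl buffer, then 0.5 μl of DMSO, reference ligand, or compound. Adding 5 μl of [125I]-Urotensin II, diluted to 5× final concentration in binding buffer, started binding. Plates were sealed with TopSeal-A and incubated 1 hour at room temperature in the dark. Wells were counted for 30 seconds each on a TopCount after a 60-second delay, and percentage inhibition was calculated.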

T1 sequence (P41143 whole entry): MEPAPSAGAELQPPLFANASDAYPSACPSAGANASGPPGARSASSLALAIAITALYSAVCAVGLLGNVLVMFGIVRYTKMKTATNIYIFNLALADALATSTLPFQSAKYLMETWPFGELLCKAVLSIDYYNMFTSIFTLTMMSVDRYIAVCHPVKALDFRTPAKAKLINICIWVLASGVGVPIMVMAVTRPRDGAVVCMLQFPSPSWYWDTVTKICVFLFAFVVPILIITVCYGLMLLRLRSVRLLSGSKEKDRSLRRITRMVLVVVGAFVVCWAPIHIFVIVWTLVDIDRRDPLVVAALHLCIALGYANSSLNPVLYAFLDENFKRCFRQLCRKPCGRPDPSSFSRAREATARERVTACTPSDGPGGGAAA
T3 sequence (P41968 whole entry): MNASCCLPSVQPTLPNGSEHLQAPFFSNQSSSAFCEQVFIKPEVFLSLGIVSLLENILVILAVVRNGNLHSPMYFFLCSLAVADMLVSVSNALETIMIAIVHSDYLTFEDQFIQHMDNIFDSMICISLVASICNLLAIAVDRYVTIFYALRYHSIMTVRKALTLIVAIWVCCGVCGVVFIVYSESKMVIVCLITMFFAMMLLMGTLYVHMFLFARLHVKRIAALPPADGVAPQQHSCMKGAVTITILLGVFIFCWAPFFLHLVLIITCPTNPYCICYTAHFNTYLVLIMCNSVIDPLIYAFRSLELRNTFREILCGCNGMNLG
T7 sequence (P35372 whole entry): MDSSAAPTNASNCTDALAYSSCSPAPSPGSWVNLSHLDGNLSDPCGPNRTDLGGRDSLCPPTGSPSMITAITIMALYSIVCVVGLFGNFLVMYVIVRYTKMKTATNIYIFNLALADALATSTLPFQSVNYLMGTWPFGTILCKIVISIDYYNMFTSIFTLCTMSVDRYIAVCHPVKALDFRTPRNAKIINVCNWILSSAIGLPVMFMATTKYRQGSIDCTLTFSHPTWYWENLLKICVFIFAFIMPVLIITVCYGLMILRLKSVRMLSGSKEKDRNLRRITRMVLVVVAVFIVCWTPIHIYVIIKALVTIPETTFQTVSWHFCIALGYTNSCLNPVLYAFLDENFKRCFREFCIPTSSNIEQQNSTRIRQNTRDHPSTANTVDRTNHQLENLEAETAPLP
T4 sequence (P32245 whole entry): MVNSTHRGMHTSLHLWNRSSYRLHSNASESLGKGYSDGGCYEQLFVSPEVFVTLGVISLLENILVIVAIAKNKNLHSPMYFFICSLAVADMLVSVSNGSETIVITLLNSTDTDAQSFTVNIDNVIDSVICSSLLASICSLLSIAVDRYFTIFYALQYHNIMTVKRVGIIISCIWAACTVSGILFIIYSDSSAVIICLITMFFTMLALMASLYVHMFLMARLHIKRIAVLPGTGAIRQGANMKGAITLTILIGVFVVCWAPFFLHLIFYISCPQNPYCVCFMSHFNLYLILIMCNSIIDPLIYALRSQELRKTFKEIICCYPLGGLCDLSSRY
T2 sequence (P41145 whole entry): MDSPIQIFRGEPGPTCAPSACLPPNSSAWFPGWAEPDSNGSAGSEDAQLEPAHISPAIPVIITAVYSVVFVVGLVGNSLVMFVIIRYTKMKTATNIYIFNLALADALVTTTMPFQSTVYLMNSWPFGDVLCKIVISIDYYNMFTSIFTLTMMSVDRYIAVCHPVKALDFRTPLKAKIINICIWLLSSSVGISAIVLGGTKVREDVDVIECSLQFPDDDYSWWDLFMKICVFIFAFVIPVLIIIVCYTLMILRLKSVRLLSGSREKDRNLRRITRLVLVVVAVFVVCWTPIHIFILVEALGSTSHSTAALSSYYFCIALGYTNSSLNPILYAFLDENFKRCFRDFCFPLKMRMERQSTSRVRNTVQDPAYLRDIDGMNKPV
T8 sequence (P25103 whole entry): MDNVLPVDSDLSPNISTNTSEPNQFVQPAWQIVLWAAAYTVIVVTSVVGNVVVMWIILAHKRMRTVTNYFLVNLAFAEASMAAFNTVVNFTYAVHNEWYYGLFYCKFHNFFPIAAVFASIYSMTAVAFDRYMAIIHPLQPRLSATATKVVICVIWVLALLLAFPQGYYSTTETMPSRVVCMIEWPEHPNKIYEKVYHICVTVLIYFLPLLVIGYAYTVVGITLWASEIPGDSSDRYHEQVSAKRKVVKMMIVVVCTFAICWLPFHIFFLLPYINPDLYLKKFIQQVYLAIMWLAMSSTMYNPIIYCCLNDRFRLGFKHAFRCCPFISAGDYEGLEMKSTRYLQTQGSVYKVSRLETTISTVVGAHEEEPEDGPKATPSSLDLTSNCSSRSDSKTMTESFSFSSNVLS
T10 sequence (P41146 whole entry): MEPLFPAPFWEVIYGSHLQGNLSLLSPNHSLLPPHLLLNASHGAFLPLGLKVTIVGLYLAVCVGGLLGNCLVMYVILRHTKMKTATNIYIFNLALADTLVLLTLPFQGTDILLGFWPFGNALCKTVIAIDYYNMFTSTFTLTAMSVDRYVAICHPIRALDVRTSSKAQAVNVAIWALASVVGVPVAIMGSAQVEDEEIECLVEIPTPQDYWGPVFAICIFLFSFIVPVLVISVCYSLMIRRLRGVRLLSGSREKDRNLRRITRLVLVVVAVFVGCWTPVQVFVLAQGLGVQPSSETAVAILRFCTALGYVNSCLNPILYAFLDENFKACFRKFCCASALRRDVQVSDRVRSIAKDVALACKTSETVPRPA
T5 sequence (P33032 whole entry): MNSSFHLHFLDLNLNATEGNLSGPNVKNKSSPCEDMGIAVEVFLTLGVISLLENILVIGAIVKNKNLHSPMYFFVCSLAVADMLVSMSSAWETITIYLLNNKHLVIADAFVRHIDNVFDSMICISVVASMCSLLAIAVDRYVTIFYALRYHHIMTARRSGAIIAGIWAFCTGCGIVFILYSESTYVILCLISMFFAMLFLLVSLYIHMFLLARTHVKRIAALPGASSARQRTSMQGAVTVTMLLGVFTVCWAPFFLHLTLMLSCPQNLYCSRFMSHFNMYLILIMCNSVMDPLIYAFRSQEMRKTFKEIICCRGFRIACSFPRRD
T6 sequence (Q99705 whole entry): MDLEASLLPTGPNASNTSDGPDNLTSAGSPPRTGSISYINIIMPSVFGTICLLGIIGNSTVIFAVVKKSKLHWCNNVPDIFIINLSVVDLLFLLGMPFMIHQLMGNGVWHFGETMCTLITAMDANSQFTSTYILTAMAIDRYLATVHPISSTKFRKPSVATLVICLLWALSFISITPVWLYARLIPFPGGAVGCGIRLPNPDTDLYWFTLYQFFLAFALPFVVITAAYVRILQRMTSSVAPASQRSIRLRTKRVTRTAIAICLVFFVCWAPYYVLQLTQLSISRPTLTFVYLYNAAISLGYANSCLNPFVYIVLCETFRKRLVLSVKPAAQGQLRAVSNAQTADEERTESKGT

SMILES	A1: inhibition of radioligand binding, human δ-opioid (DOP) (Human δ-opioid (DOP))	A2: inhibition of radioligand binding, human κ-opioid (KOP) (Human κ-Opioid (KOP))	A3: inhibition of radioligand binding, human melanocortin (MC3) (Human Melanocortin (MC3))	A4: inhibition of radioligand binding, human melanocortin (MC4) (Human Melanocortin (MC4))	A5: inhibition of radioligand binding, human melanocortin (MC5) (Human melanocortin (MC5))	A6: inhibition of radioligand binding, human melanin-concentrating hormone (MCH1) [1]	A7: inhibition of radioligand binding, human μ-opioid (MOP) (Human μ-opioid (MOP))	A9: inhibition of radioligand binding, human neuropeptide Y (NPY-Y1) [2]	A10: inhibition of radioligand binding, human opioid (ORL1) (Human opioid (ORL1))	A11: inhibition of radioligand binding, mouse urotensin (mUR2) (Mouse urotensin (mUR2))	other results
COCC1OC(OCCc2ccccc2)C(NC(=O)CNC(=N)N)C(OCc2ccc(-c3ccccc3)cc2)C1O (stereo not drawn) [compound 548]	− (“−” indicates less than 50% inhibition at 10 μM)	− (“−” indicates less than 50% inhibition at 10 μM)	− (“−” indicates less than 50% inhibition at 10 μM)	− (“−” indicates less than 50% inhibition at 10 μM)	+ (“+” indicates greater than 50% inhibition at 10 μM)	− (“−” indicates less than 50% inhibition at 10 μM)	− (“−” indicates less than 50% inhibition at 10 μM)	− (“−” indicates less than 50% inhibition at 10 μM)	− (“−” indicates less than 50% inhibition at 10 μM)	− (“−” indicates less than 50% inhibition at 10 μM)	A8: inhibition of radioligand binding, human neurokinin (NK1) (Human neurokinin (NK1); 10 µM): + (“+” indicates greater than 50% inhibition at 10 μM)
COCC1OC(OCc2ccc(Cl)cc2)C(NC(=O)CCN)C(OCc2ccccc2)C1O (stereo not drawn) [compound 195]	–	–	–	–	–	–	–	–	–	–	A1: inhibition of radioligand binding (Human δ-opioid (DOP); FlashPlate): − (“−” indicates less than 50% inhibition at 10 μM); A2: inhibition of radioligand binding (Human κ-Opioid (KOP); filtration): − (“−” indicates less than 50% inhibition at 10 μM); A3: inhibition of radioligand binding (Human Melanocortin (MC3); FlashPlate): − (“−” indicates less than 50% inhibition at 10 μM); A4: inhibition of radioligand binding (Human Melanocortin (MC4); FlashPlate): − (“−” indicates less than 50% inhibition at 10 μM); A5: inhibition of radioligand binding (Human melanocortin (MC5); FlashPlate): − (“−” indicates less than 50% inhibition at 10 μM); A6: inhibition of radioligand binding ([1]; [125I]-S36057, FlashPlate): − (“−” indicates less than 50% inhibition at 10 μM); A7: inhibition of radioligand binding (Human μ-opioid (MOP); FlashPlate): − (“−” indicates less than 50% inhibition at 10 μM); A8: inhibition of radioligand binding (Human neurokinin (NK1); filtration): + (“+” indicates greater than 50% inhibition at 10 μM); A9: inhibition of radioligand binding ([2]; FlashPlate): − (“−” indicates less than 50% inhibition at 10 μM); A10: inhibition of radioligand binding (Human opioid (ORL1); FlashPlate): − (“−” indicates less than 50% inhibition at 10 μM); A11: inhibition of radioligand binding (Mouse urotensin (mUR2); FlashPlate): − (“−” indicates less than 50% inhibition at 10 μM)
NCCC(=O)NC1C(OCc2ccc(Cl)cc2)OC(COCc2ccc3ccccc3c2)C(O)C1OCc1ccccc1 (single isomer, unassigned) [compound 484]	− (“−” indicates less than 50% inhibition at 10 μM)	− (“−” indicates less than 50% inhibition at 10 μM)	− (“−” indicates less than 50% inhibition at 10 μM)	− (“−” indicates less than 50% inhibition at 10 μM)	+ (“+” indicates greater than 50% inhibition at 10 μM)	− (“−” indicates less than 50% inhibition at 10 μM)	− (“−” indicates less than 50% inhibition at 10 μM)	− (“−” indicates less than 50% inhibition at 10 μM)	− (“−” indicates less than 50% inhibition at 10 μM)	− (“−” indicates less than 50% inhibition at 10 μM)	A8: inhibition of radioligand binding, human neurokinin (NK1) (Human neurokinin (NK1)): + (“+” indicates greater than 50% inhibition at 10 μM)
